{"source": "patent US20090117155A1", "about": "“TREATMENT OF HIV-1 BY MODULATION OF VPR ACTIVATION OF THE M-CSF PROMOTER” (priority 2006, published 2009)", "key": {"HIV-1 LTR": {"tested_on": "HIV-1 LTR", "settings": "Schafer et al., 2006; cited from earlier work"}, "mammary tumorigenesis": {"tested_on": "mammary tumorigenesis", "settings": "Bcra1/p53-deficient mice, Poole et al., 2006; cited from earlier work"}, "M-CSF": {"tested_on": "M-CSF", "assay": "M-CSF production in culture supernatants of primary human macrophages (ELISA)", "assay_type": "cell-based", "experimental": "(§1) Peripheral blood mononuclear cells (PBMC) were isolated from heparinized whole blood or buffy coats acquired from healthy seronegative blood donors by density-gradient centrifugation (Histopaque-1017, Sigma-Aldrich, St. Louis, Mo.). CD14+ monocytes were isolated from prepared PBMC using the Miltenyi AutoMACS system (Miltenyi Biotec, Auburn, Calif.). Briefly, cells were incubated with anti-CD14 monoclonal antibody-coated microbeads (Miltenyi Biotec, Auburn, Calif.) at 4° C. for 15 minutes and run on an AutoMacs separator. […] Recovered CD14+ monocytes were used immediately in transfection experiments. For macrophage preparation, PBMC were incubated in RPMI 1640 (Invitrogen, Carlsbad, Calif.) containing 20% FBS, 10% human AB serum, 2 mM L-glutamine and penicillin (50 U/ml)/streptomycin (50 μg/ml) overnight at 37° C. Adherent cells were washed 3 times with phosphate-buffered saline (PBS), removed with cold PBS 0.02% EDTA and differentiated into macrophages for 6 days in DMEM supplemented with 10% human AB serum and 2 mM L-glutamine. THP1 cells were cultivated in RPMI 1640 supplemented with 10% FBS, 2 mM L-glutamine and penicillin (50 U/ml)/streptomycin (50 μg/ml) (=complete medium).\n(§2) THP1 cells (2×106/transfection) were transiently transfected with Effecten reagent (Qiagen, Santa Clara, Calif.) using 1 μg of plasmid DNA, 8 μl enhancer and 10 μl effectene. Cells were incubated in complete medium for 24 hours in 6-well plates. Human primary CD 14+ cells were transfected using the Human Monocyte Nucleofector Kit (Amaxa, Gaithersburg, Md.) according to the manufacturer's instructions. Briefly, 5×10^6 CD 14+ cells were resuspended in 100 μl of nucleofector solution (Amaxa) with 5 μg of DNA and electroporated using the program Y-001. Cells were then transferred in 1.5 ml of Human Monocyte Nucleofector medium (Amaxa) in 24-well plates for 24 hours. Human macrophages were transfected using the Human Macrophage Nucleofector Kit (Amaxa) according to the manufacturer's specifications. In brief, 0.5×10^6 macrophages were resuspended in 100 μl of nucleofector solution (Amaxa) with 5 μg of DNA and electroporated using the program Y-010. Cells were incubated for 24 hours in advanced RPMI (Invitrogen, Carlsbad, Calif.) supplemented with 10% FBS and 2 mM L-glutamine in 12-well plates. One day after transfection, cells were harvested by centrifugation and cell pellets were resuspended in 200 μl of lysis buffer (Promega). Twenty microliters of cell lysate was assayed for luciferase activity using the Luciferase Assay System (Promega). The protein concentration was determined with the BCA Protein Assay Reagent (Pierce, Rockford, Ill.) and the luciferase activity was expressed in Relative Light Unit (RLU) per μg of protein.\nM-CSF and IL-6 production in cell culture supernatants were assessed by ELISA according to the manufacturer's instructions (R&D systems, Minneapolis, Minn.)."}, "M-CSF promoter": {"tested_on": "M-CSF promoter", "assay": "M-CSF promoter luciferase reporter (pGL3-M-CSF) in primary human macrophages", "assay_type": "cell-based", "experimental": "as §1\nThe M-CSF promoter (−1310/+48 bp) was amplified from human genomic DNA by PCR with the primers 5′-[…]-3′ (SEQ ID NO: 20) and 5′-[…] […]-3′ (SEQ ID NO: 21). […] Amplification consisted of 30 cycles of 30 s at 94° C., 30 s at 58° C., and 6 min at 72° C. All the constructs were verified by sequencing (Nucleic Acid Facility, Jefferson University, PA USA).\nas §2"}, "HIV-1": {"tested_on": "HIV-1", "settings": "Schafer et al., 2006; cited from earlier work"}, "[1]": {"settings": "concentrations as high as 100 μM, in the absence of Vpr"}, "[2]": {"settings": "primary macrophages co-transfected with pGL3-M-CSF and Vpr vector"}}}
{"compound": "CC#C[C@]1(O)CC[C@H]2[C@@H]3CCC4=CC(=O)CCC4=C3[C@@H](c3ccc(N(C)C)cc3)C[C@@]21C", "note": "[RU486, mifepristone]", "values": [{"measurement": "Vpr-induced transactivation of the HIV-1 LTR", "setting": "HIV-1 LTR", "result": "inhibits"}, {"measurement": "mammary tumorigenesis", "setting": "mammary tumorigenesis", "result": "prevent mammary tumorigenesis"}, {"measurement": "inhibition of the Vpr effect on M-CSF production", "setting": "M-CSF; 50 μM, primary macrophages co-transfected with pGL3-M-CSF and Vpr vector", "result": "total inhibition"}, {"measurement": "inhibition at 10 µM", "setting": "M-CSF; Homo sapiens, Primary macrophage, 10 μM, primary macrophages co-transfected with pGL3-M-CSF and Vpr vector, read-out: inhibition of Vpr induced M-CSF production", "result": "> 50", "unit": "%"}, {"measurement": "effect on basal level M-CSF production", "setting": "M-CSF; [1]", "result": "did not completely inhibit"}, {"measurement": "concentration required for inhibition of M-CSF induction by Vpr", "setting": "M-CSF; primary human macrophages", "result": "approximately 10 μM"}, {"measurement": "effect on Vpr-dependent M-CSF production", "setting": "M-CSF; [2]", "result": "dose-dependent decrease"}, {"measurement": "inhibition at 20 µM", "setting": "M-CSF promoter; Homo sapiens, Primary macrophage, 20 μM, primary macrophages co-transfected with pGL3-M-CSF and Vpr vector, read-out: inhibition of Vpr-dependent M-CSF promoter activity", "result": "> 50", "unit": "%"}, {"measurement": "effect on basal level of M-CSF promoter activity", "setting": "M-CSF promoter; [1]", "result": "did not completely inhibit"}, {"measurement": "effect on Vpr-dependent M-CSF promoter activity", "setting": "M-CSF promoter; [2]", "result": "dose-dependent decrease"}, {"measurement": "viral replication in PBMCs", "setting": "HIV-1", "result": "inhibits"}]}
{"compound": "CC(=O)[C@H]1CC[C@H]2[C@@H]3CCC4=CC(=O)CC[C@]4(C)[C@H]3CC[C@]12C", "note": "[progesterone]", "values": [{"measurement": "effect on M-CSF promoter activity", "setting": "M-CSF promoter; primary macrophages transfected with pGL3-M-CSF, different concentrations, no Vpr", "result": "no increase"}]}
{"compound": "IL-6: cytokine IL-6 used to treat primary macrophages for 24 hours", "values": [{"measurement": "M-CSF transcription", "setting": "M-CSF promoter; primary macrophages treated for 24 hours", "result": "50.1±0.4 RLU/μg of protein"}]}
